The test concerns the target T1, NLRP3 inflammasome (Homo sapiens, UniProt Q96P20).
T1 construct: endogenous in cells; host or cells: THP-1 (human monocyte-derived), PMA-differentiated, Nigericin-stimulated
Description: In vitro IL-1β production test (PMA-differentiated THP-1 cells, Nigericin stimulation, AlphaLISA). It is filed as cell-based. Conditions: inhibition of IL-1β production; THP-1 cells differentiated with 200 nM PMA; 0.015 mM Nigericin; 2 hours. As to the method:
Human monocyte-derived THP-1 cells were cultured for one day in 10% bovine serum-containing RPMI-1640 medium (Thermo #A10491-01) supplemented with 200 nM phorbol 12-myristate 13-acetate (PMA, Sigma #P8139) to induce differentiation.
NLRP3 inflammasome was induced by replacing the culture medium with bovine serum-free RPMI-1640 medium supplemented with 0.015 mM Nigericin (Sigma #SML1779) and the test compound of known concentrations.
After 2 hours, the culture medium supernatant was collected and the IL-1β protein concentration was measured using the AlphaLISA (registered trademark) assay (PerkinElmer #AL220C).
The IL-1β concentration without the addition of the test compound and with Nigericin stimulation was set as 0% inhibitory activity, and the IL-1β concentration without Nigericin stimulation was set as 100% inhibitory activity, and the inhibition rate (% inhibition) of the test compound at each added concentration was calculated.
The % inhibition value was subjected to sigmoid fitting using a logistic regression model to calculate the 50% inhibitory concentration (IC50 value).
(In general: In Alpha technology, singlet oxygen from a donor bead excites a nearby acceptor bead.)

Structures are written as SMILES.

T1 sequence (Q96P20 whole entry): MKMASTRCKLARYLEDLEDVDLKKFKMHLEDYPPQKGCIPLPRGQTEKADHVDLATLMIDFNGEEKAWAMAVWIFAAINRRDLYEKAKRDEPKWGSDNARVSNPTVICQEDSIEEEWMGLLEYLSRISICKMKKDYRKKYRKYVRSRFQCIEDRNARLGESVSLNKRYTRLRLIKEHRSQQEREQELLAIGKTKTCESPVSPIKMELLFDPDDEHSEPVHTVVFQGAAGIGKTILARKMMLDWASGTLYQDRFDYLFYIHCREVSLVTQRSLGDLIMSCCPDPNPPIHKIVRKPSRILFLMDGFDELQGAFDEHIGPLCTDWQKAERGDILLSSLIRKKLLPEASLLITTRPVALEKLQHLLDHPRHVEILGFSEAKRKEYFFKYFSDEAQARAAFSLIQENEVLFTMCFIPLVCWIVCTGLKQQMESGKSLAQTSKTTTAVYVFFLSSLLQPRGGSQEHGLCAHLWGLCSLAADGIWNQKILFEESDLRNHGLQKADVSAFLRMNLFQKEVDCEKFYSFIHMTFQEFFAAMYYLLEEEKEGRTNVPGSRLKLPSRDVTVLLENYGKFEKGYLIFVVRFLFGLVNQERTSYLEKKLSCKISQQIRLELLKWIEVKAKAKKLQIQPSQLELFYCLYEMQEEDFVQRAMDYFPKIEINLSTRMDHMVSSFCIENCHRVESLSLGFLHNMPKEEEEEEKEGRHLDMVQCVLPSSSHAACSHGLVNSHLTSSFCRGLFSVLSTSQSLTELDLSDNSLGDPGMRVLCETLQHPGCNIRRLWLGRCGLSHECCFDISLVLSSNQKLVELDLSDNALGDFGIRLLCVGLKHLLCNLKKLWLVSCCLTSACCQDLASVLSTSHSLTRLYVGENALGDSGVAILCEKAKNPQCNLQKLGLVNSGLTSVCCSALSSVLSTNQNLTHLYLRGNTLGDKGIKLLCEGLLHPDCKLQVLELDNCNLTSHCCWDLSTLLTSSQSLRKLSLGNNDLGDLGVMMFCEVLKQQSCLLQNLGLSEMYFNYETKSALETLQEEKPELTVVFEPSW

For orientation: IC50 means the concentration that gives 50% inhibition. In turn, `Cc1cc(C(F)(F)F)cc(O)c1-c1cc2c(C#N)cn([C@H]3C[C@@](C)(O)C3)c2nn1` [Example 45, 7-[(1s,3s)-3-hydroxy-3-methylcyclobutyl]-3-[2-hydroxy-6-methyl-4-(trifluoromethyl)phenyl]-7H-pyrrolo[2,3-c]pyridazine-5-carbonitrile] showed a half-inhibitory concentration (IC50) of 8.81 nM.

On to `Cc1cn([C@H]2C[C@@](C)(O)C2)c2nnc(-c3c(O)cc(Cl)cc3Cl)cc12` [Example 63, 3,5-dichloro-2-{7-[(1s,3s)-3-hydroxy-3-methylcyclobutyl]-5-methyl-7H-pyrrolo[2,3-c]pyridazin-3-yl}phenol], for which the IC50 was found to be 42.3 nM.

In turn, `Cc1cc(C(F)(F)F)cc(O)c1-c1cc2c(nn1)N([C@@H]1CC[C@@H]3CC[C@H]1N3C)CC2` (single isomer, unassigned) [Example 19, 3-methyl-2-{7-[(1R,2R,5S or 1,2S,5R)-8-methyl-8-azabicyclo[3.2.1]octan-2-yl]-6,7-dihydro-5H-pyrrolo[2,3-c]pyridazin-3-yl}-5-(trifluoromethyl)phenol] showed an IC50 of 9.99 nM.

Turning to `CCN1CCC[C@@H](n2cc(C)c3cc(-c4c(C)cc(C(F)(F)F)cc4O)nnc32)C1` [Example 20, 2-{7-[(3R)-1-ethylpiperidin-3-yl]-5-methyl-7H-pyrrolo[2,3-c]pyridazin-3-yl}-3-methyl-5-(trifluoromethyl)phenol], half-maximal inhibition (IC50) was put at 8.19 nM.

Consider `Cc1cc(C(F)(F)F)cc(O)c1-c1cc2c(nn1)N([C@@H]1CCCN(C)C1)C(C)C2` (mixture of isomers) [Example 30, 3-methyl-2-{6-methyl-7-[(3R)-1-methylpiperidin-3-yl]-6,7-dihydro-5H-pyrrolo[2,3-c]pyridazin-3-yl}-5-(trifluoromethyl)phenol], for which the concentration for half-maximal inhibition (IC50) stood at 14.4 nM.

Compound `CCN1CCC[C@@H](N2CCc3cc(-c4c(C)cc(C(F)(F)F)cc4O)nnc32)C1` [Example 11, 2-{7-[(3R)-1-ethylpiperidin-3-yl]-6,7-dihydro-5H-pyrrolo[2,3-c]pyridazin-3-yl}-3-methyl-5-(trifluoromethyl)phenol] yielded a 50% inhibitory concentration (IC50) of 7.32 nM.

`Cc1c(-c2ccc(C(F)(F)F)cc2O)nnc2c1CCN2[C@H]1C[C@@](C)(O)C1` [Example 39, 2-{7-[(1s,3s)-3-hydroxy-3-methylcyclobutyl]-4-methyl-6,7-dihydro-5H-pyrrolo[2,3-c]pyridazin-3-yl}-5-(trifluoromethyl)phenol] showed an IC50 of 401 nM.

Compound `Cc1c(F)c(C(F)(F)F)cc(O)c1-c1cc2c(C)cn([C@H]3C[C@@](C)(O)C3)c2nn1` [Example 50, 4-fluoro-2-{7-[(1s,3s)-3-hydroxy-3-methylcyclobutyl]-5-methyl-7H-pyrrolo[2,3-c]pyridazin-3-yl}-3-methyl-5-(trifluoromethyl)phenol] displayed an IC50 of 236 nM.

The compound `Cc1cc(OC(F)F)cc(O)c1-c1cc2c(OC(F)F)cn([C@H]3C[C@@](C)(O)C3)c2nn1` [Example 78, 5-(difluoromethoxy)-2-[5-(difluoromethoxy)-7-[(1s,3s)-3-hydroxy-3-methylcyclobutyl]-7H-pyrrolo[2,3-c]pyridazin-3-yl]-3-methylphenol] returned a half-inhibitory concentration (IC50) of 35 nM.

`Cc1cc(C(F)(F)F)cc(O)c1-c1cc2c(nn1)N([C@@H]1CCCN(C)C1)CCCN2C` [Example 37, 3-methyl-2-{5-methyl-9-[(3R)-1-methylpiperidin-3-yl]-6,7,8,9-tetrahydro-5H-pyridazino[3,4-b][1,4]diazepin-3-yl}-5-(trifluoromethyl)phenol] returned an IC50 of 25.8 nM.

The compound `Cc1cc(C(F)(F)F)cc(O)c1-c1cc2c3c(n([C@H]4C[C@@](C)(O)C4)c2nn1)CCC3` [Example 12, 2-{8-[(1s,3s)-3-hydroxy-3-methylcyclobutyl]-5,6,7,8-tetrahydrocyclopenta[4,5]pyrrolo[2,3-c]pyridazin-3-yl}-3-methyl-5-(trifluoromethyl)phenol] had a half-maximal inhibitory concentration (IC50) of 25.9 nM.

The compound `CN1CCC[C@@H](N2CCN3CCCc4c(-c5ccc(C(F)(F)F)cc5O)nnc2c43)C1` [Example 38, 2-{9-[(3R)-1-methylpiperidin-3-yl]-5,6,8,9-tetrahydro-4H, 7H-1,2,6a,9-tetraazaphenalen-3-yl}-5-(trifluoromethyl)phenol] had an IC50 of 108 nM.

With `Cc1cc(C(F)(F)F)cc(O)c1-c1cc2c(C)cn(C34CCCC(O)(C3)C4)c2nn1` [Example 8, 5-{3-[2-hydroxy-6-methyl-4-(trifluoromethyl)phenyl]-5-methyl-7H-pyrrolo[2,3-c]pyridazin-7-yl}bicyclo[3.1.1]heptan-1-ol], the IC50 stood at 15.4 nM.

Regarding `Cc1cc(F)cc(O)c1-c1cc2c(C)cn([C@H]3C[C@@](C)(O)C3)c2nn1` [Example 91, 5-fluoro-2-{7-[(1s,3s)-3-hydroxy-3-methylcyclobutyl]-5-methyl-7H-pyrrolo[2,3-c]pyridazin-3-yl}-3-methylphenol], it took 125 nM to reach half-maximal inhibition (IC50).

`CCN1CCC[C@@H](N2CCc3cc(-c4c(C)cc(Cl)cc4O)nnc32)C1` [Example 26, 5-chloro-2-{7-[(3R)-1-ethylpiperidin-3-yl]-6,7-dihydro-5H-pyrrolo[2,3-c]pyridazin-3-yl}-3-methylphenol] came in with an IC50 of 6.18 nM.

In turn, `Cc1cc(C(F)(F)F)cc(O)c1-c1cc2ccn(-c3ncc(F)cn3)c2nn1` [Example 84, 2-[7-(5-fluoropyrimidin-2-yl)-7H-pyrrolo[2,3-c]pyridazin-3-yl]-3-methyl-5-(trifluoromethyl)phenol] gave a concentration for half-maximal inhibition (IC50) of 12.8 nM.

`Cc1cc(C(F)(F)F)cc(O)c1-c1cc2ccn([C@H]3C[C@@](C)(CO)C3)c2nn1` [Example 7, 2-{7-[(1s,3s)-3-(hydroxymethyl)-3-methylcyclobutyl]-7H-pyrrolo[2,3-c]pyridazin-3-yl}-3-methyl-5-(trifluoromethyl)phenol] registered an IC50 of 67.6 nM.

In the case of `Cc1cc(C(C)(F)F)cc(O)c1-c1cc2c(C)cn([C@H]3C[C@@](C)(O)C3)c2nn1` [Example 69, 5-(1,1-difluoroethyl)-2-{7-[(1s,3s)-3-hydroxy-3-methylcyclobutyl]-5-methyl-7H-pyrrolo[2,3-c]pyridazin-3-yl}-3-methylphenol], the IC50 is 47.8 nM.

Regarding `Cc1cc(OC(F)F)cc(O)c1-c1cc2c(C#N)cn([C@H]3C[C@@](C)(O)C3)c2nn1` [Example 74, 3-[4-(difluoromethoxy)-2-hydroxy-6-methylphenyl]-7-[(1s,3s)-3-hydroxy-3-methylcyclobutyl]-7H-pyrrolo[2,3-c]pyridazine-5-carbonitrile], the midpoint of inhibition, the IC50, lay at 26.1 nM.

Regarding `CCCN1CCC[C@@H](N2CCc3cc(-c4c(C)cc(C(F)(F)F)cc4O)nnc32)C1` [Example 14, 3-methyl-2-{7-[(3R)-1-propylpiperidin-3-yl]-6,7-dihydro-5H-pyrrolo[2,3-c]pyridazin-3-yl}-5-(trifluoromethyl)phenol], the IC50 was found to be 7.87 nM.

In turn, `CCc1cn([C@H]2C[C@@](C)(O)C2)c2nnc(-c3c(C)cc(C(F)(F)F)cc3O)cc12` [Example 44, 2-{5-ethyl-7-[(1s,3s)-3-hydroxy-3-methylcyclobutyl]-7H-pyrrolo[2,3-c]pyridazin-3-yl}-3-methyl-5-(trifluoromethyl)phenol] displayed a 50% inhibitory concentration (IC50) of 75 nM.

The compound `Cc1cc(C(F)F)cc(O)c1-c1cc2c(C)cn([C@H]3C[C@@](C)(O)C3)c2nn1` [Example 92, 5-(difluoromethyl)-2-{7-[(1s,3s)-3-hydroxy-3-methylcyclobutyl]-5-methyl-7H-pyrrolo[2,3-c]pyridazin-3-yl}-3-methylphenol] came in with a concentration for half-maximal inhibition (IC50) of 59.2 nM.

The compound `CCN1CCC[C@@H](n2cc(C#N)c3cc(-c4c(C)cc(OC(F)F)cc4O)nnc32)C1` [Example 67, 3-[4-(difluoromethoxy)-2-hydroxy-6-methylphenyl]-7-[(3R)-1-ethylpiperidin-3-yl]-7H-pyrrolo[2,3-c]pyridazine-5-carbonitrile] had an IC50 of 4.93 nM.

`CCN1CCC[C@@H](n2cc(C#N)c3cc(-c4c(C)cc(C(F)(F)F)cc4O)nnc32)C1` [Example 64, 7-[(3R)-1-ethylpiperidin-3-yl]-3-[2-hydroxy-6-methyl-4-(trifluoromethyl)phenyl]-7H-pyrrolo[2,3-c]pyridazine-5-carbonitrile] yielded an IC50 of 9.6 nM.

In the case of `Cc1cc(C(F)(F)F)cc(O)c1-c1cc2c(nn1)N(c1ncc(F)cn1)[C@@H]1CCO[C@H]21` (single isomer, unassigned) [Example 98, 2-[(4bR,7aR or 4bS,7aS)-8-(5-fluoropyrimidin-2-yl)-6,7,7a,8-tetrahydro-4bH-furo[2′,3′:4,5]pyrrolo[2,3-c]pyridazin-3-yl]-3-methyl-5-(trifluoromethyl)phenol], the midpoint of inhibition, the IC50, lay at 13.8 nM.

Compound `Cc1cc(C(F)(F)F)cc(O)c1-c1cc2c(nn1)N([C@@H]1CCCN(C)C1)CCN2C` [Example 35, 3-methyl-2-{5-methyl-8-[(3R)-1-methylpiperidin-3-yl]-5,6,7,8-tetrahydropyrazino[2,3-c]pyridazin-3-yl}-5-(trifluoromethyl)phenol] displayed an IC50 of 25.6 nM.

Compound `Cc1cc(C(F)(F)F)c(F)c(O)c1-c1cc2c(C)cn([C@H]3C[C@@](C)(O)C3)c2nn1` [Example 48, 2-fluoro-6-{7-[(1s,3s)-3-hydroxy-3-methylcyclobutyl]-5-methyl-7H-pyrrolo[2,3-c]pyridazin-3-yl}-5-methyl-3-(trifluoromethyl)phenol] came in with an IC50 of 101 nM.

For the compound `Cc1cc(Cl)cc(O)c1-c1cc2c(C)cn([C@H]3C[C@@](C)(O)C3)c2nn1` [Example 9, 5-chloro-2-{7-[(1s,3s)-3-hydroxy-3-methylcyclobutyl]-5-methyl-7H-pyrrolo[2,3-c]pyridazin-3-yl}-3-methylphenol], the IC50 worked out at 13.2 nM.

Values taken from US20260226065A1, “SUBSTITUTED BENZENE COMPOUND” (DAIICHI SANKYO COMPANY, LIMITED, priority 2023, published 2026).
